We go through 17 molecules from patent US20250333405A1, “ANTAGONISTS OF GPR39 PROTEIN” (VASOCARDEA, INC., priority 2024, published 2025).

This assay has as its target T1, human GPR39 receptor (Homo sapiens, UniProt O43194).
T1 construct: PC3 Cells, Expressing the Endogenous Human GPR39 Receptor; endogenous in cells; host or cells: PC3 (human prostate adenocarcinoma) cells
T1 sequence (O43194 1-453): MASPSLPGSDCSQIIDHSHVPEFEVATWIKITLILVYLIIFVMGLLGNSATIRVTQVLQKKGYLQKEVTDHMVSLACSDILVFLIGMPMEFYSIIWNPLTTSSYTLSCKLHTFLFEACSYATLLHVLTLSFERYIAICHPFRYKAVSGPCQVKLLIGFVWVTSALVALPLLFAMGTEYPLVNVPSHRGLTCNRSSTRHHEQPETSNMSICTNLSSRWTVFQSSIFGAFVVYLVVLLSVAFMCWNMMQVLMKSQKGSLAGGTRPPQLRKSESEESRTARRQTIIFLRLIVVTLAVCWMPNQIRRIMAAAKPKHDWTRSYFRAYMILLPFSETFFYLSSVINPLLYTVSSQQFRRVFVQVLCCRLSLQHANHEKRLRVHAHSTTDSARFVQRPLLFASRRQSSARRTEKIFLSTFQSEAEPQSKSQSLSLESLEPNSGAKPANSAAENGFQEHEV
Put plainly: Intracellular calcium response (FLIPR, Calcium-6) in PC3 cells, antagonism of agonist C3 (TC-G 1008) at EC90. It counts as cell-based. To be noted: functional pKi (-Log10Ki) by modified Cheng-Prusoff from IC50; PC3 cells endogenously expressing human GPR39; 30 μM ZnCl2; agonist C3 (TC-G 1008) at EC90 1.5 μM; read-out: fpKi activity. In a few lines:
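Calcium-6-loaded cells in HEPES buffer pH 7.4 were given compound with 30 μM final ZnCl2 (0.32% DMSO) for 10 min, then challenged with 1.5 μM C3. Baseline-subtracted peak fluorescence expressed as % inhibition of the C3 response; IC50 from four-parameter logistic fit, reported as binned fpKi.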
For orientation: Calcium flux is commonly read through the fluorescence of an indicator in the cells.
As for `CN1CCN(S(=O)(=O)c2ccc(NC(=O)C3CC3)cc2N2CCCC2)C(c2ccccc2)C1` (centres unmarked) [Example 102, N-[4-(4-methyl-2-phenylpiperazin-1-yl)sulfonyl-3-pyrrolidin-1-ylphenyl]cyclopropanecarboxamide], the Ki fell in the range of 1260 to 6310 nM.
In the case of `CN1CCN(S(=O)(=O)c2ccc(NC(=O)C3CC3)cc2N2CCCC2)CC1` [Example 103, N-[4-(4-methylpiperazin-1-yl)sulfonyl-3-pyrrolidin-1-ylphenyl]cyclopropanecarboxamide], the Ki was 1260 to 6310 nM.
The result for `CN(C1CCN(C(=O)c2ccc(NC(=O)C3CC3)cc2N2CCCC2)CC1)S(C)(=O)=O` [Example 104, N-[4-[4-[methyl(methylsulfonyl)amino]piperidine-1-carbonyl]-3-pyrrolidin-1-ylphenyl]cyclopropanecarboxamide] reads 1260 to 6310 nM; that for `CS(=O)(=O)NC1CCN(C(=O)c2ccc(NC(=O)C3CC3)cc2N2CCCC2)CC1` [Example 105, N-[4-[4-(methanesulfonamido)piperidine-1-carbonyl]-3-pyrrolidin-1-ylphenyl]cyclopropanecarboxamide], over 6310 nM.
On to `O=C(c1ccc(-c2nnc[nH]2)cc1N1CCCC1)N1CCC(C(F)(F)F)CC1` [Example 112, [2-pyrrolidin-1-yl-4-(4H-1,2,4-triazol-3-yl)phenyl]-[4-(trifluoromethyl)piperidin-1-yl]methanone], for which the Ki was in the range of 63.1 to 251 nM.
As for `CN1CCN(C(=O)c2cc3[nH]c(C4CC4)nc3cc2N2CCCC2)C(c2ccccc2)C1` (centres unmarked) [Example 113, (2-cyclopropyl-6-pyrrolidin-1-yl-3H-benzimidazol-5-yl)-(4-methyl-2-phenylpiperazin-1-yl)methanone], the Ki was over 6310 nM.
Regarding `Cc1nc2cc(N3CCCC3)c(C(=O)N3CCN(C)CC3c3ccccc3)cc2[nH]1` (centres unmarked) [Example 114, (4-methyl-2-phenylpiperazin-1-yl)-(2-methyl-6-pyrrolidin-1-yl-3H-benzimidazol-5-yl)methanone], the Ki is over 6310 nM.
On to `CN1CCN(C(=O)c2cc(F)c(NC(=O)C3CC3)nc2N2CCCC2)C(c2ccccc2)C1` (centres unmarked) [Example 115, N-[3-fluoro-5-(4-methyl-2-phenylpiperazine-1-carbonyl)-6-pyrrolidin-1-ylpyridin-2-yl]cyclopropanecarboxamide], for which the Ki lay in the range of 1260 to 6310 nM.
In the case of `O=C(Nc1ccc(C(=O)N2CCS(=O)(=O)CC2)c(-n2ccc(C(F)F)n2)c1)C1CC1` [Example 116, N-[3-[3-(difluoromethyl)pyrazol-1-yl]-4-(1,1-dioxo-1,4-thiazinane-4-carbonyl)phenyl]cyclopropanecarboxamide], the Ki was in the range of 63.1 to 251 nM.
The result for `N#Cc1ccn(-c2cc(NC(=O)C3CC3)ccc2C(=O)N2CCS(=O)(=O)CC2)n1` [Example 117, N-[3-(3-cyanopyrazol-1-yl)-4-(1,1-dioxo-1,4-thiazinane-4-carbonyl)phenyl]cyclopropanecarboxamide] reads 1260 to 6310 nM; that for `CC(C)(C)c1ccn(-c2cc(NC(=O)C3CC3)ccc2C(=O)N2CCS(=O)(=O)CC2)n1` [Example 118, N-[3-(3-tert-butylpyrazol-1-yl)-4-(1,1-dioxo-1,4-thiazinane-4-carbonyl)phenyl]cyclopropanecarboxamide], at most 50.1 nM; that for `O=C(Nc1ccc(C(=O)N2CCC(F)(F)CC2)c(-n2ccc(C(F)(F)F)n2)c1)C1CC1` [Example 119, N-[4-(4,4-difluoropiperidine-1-carbonyl)-3-[3-(trifluoromethyl)pyrazol-1-yl]phenyl]cyclopropanecarboxamide], at most 50.1 nM.
The same measure for `Cc1nnc(-c2ccc(C(=O)N3CCC(C#N)CC3)c(-c3ccn(C(C)C)n3)c2)[nH]1` [Example 120, 1-[2-(1-isopropylpyrazol-3-yl)-4-(5-methyl-4H-1,2,4-triazol-3-yl)benzoyl]piperidine-4-carbonitrile]: 316 to 1000 nM; for `Cc1nnc(-c2ccc(C(=O)N3CCC(C(F)(F)F)CC3)c(-n3ccc(C4CC4)n3)c2)[nH]1` [Example 121, [2-(3-cyclopropylpyrazol-1-yl)-4-(5-methyl-4H-1,2,4-triazol-3-yl)phenyl]-[4-(trifluoromethyl)piperidin-1-yl]methanone]: at most 50.1 nM.
The same measure for `Cc1nnc(-c2ccc(C(=O)N3CCC(F)(F)CC3)c(-n3ccc(C(C)(C)C)n3)c2)[nH]1` [Example 122, [2-(3-tert-butylpyrazol-1-yl)-4-(5-methyl-4H-1,2,4-triazol-3-yl)phenyl]-(4,4-difluoropiperidin-1-yl)methanone]: at most 50.1 nM.
As to `O=C(Nc1ccc(C(=O)N2CCS(=O)(=O)CC2)c(N2CCCC2=O)c1)C1CC1` [Example 123, N-[4-(1,1-dioxo-1,4-thiazinane-4-carbonyl)-3-(2-oxopyrrolidin-1-yl)phenyl]cyclopropanecarboxamide], the Ki is over 6310 nM.
The result for `CN1CCN(C(=O)c2ccc(NC(=O)C3CC3)cc2N2CCCC2=O)C(c2ccccc2)C1` (centres unmarked) [Example 124, N-[4-(4-methyl-2-phenylpiperazine-1-carbonyl)-3-(2-oxopyrrolidin-1-yl)phenyl]cyclopropanecarboxamide] reads over 6310 nM.
